Legend:
Assay in all cases: Bliss excess, mean over the matrix (fraction); higher = more synergy
[1] = test system: GRANTA-519 (B-Cell Non-Hodgkin's Lymphoma)
Outline: (§1)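 After 24 hours at 37°C and 5% CO2 in 1536-well plates, cells in DMEM/F12 or RPMI plus 10% FBS received two-drug dose matrices for 72 hours. Viability came from CellTiter-Glo 2.0 luminescence and was scaled as inhibition, anchored at 0 by vehicle wells and at 1 by blank wells. Combination Emax is taken as the second-highest inhibition in the matrix, and Bliss excess as the observed combination effect less EA + EB − EA·EB, with EA and EB the single-agent effects.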

[2] = test system: HT-1197 (Bladder Carcinoma)
Outline: as §1

[3] = test system: MRK-nu-1 (Breast Carcinoma)
Outline: as §1

[4] = test system: L-363 (Plasma Cell Myeloma)
Outline: as §1

[5] = test system: NCI-H1944 (Lung Adenocarcinoma)
Outline: as §1

[6] = test system: OVKATE (Ovarian Carcinoma)
Outline: as §1

[7] = test system: COR-L105 (Lung Adenocarcinoma)
Outline: as §1

[8] = test system: A375 (Melanoma)
Outline: as §1

[9] = test system: C2BBe1 (Colorectal Carcinoma)
Outline: as §1

[10] = test system: OCI-M1 (Acute Myeloid Leukemia)
Outline: as §1

[11] = test system: SK-N-DZ (Neuroblastoma)
Outline: as §1

[12] = test system: IGROV-1 (Ovarian Carcinoma)
Outline: as §1

[13] = test system: SBC-5 (Small Cell Lung Carcinoma)
Outline: as §1

[14] = test system: SW1463 (Colorectal Carcinoma)
Outline: as §1

[15] = test system: MDA-MB-175-VII (Breast Carcinoma)
Outline: as §1

[16] = test system: TK (B-Cell Non-Hodgkin's Lymphoma)
Outline: as §1

[17] = test system: C32 (Melanoma)
Outline: as §1

[18] = test system: NCI-H1048 (Small Cell Lung Carcinoma)
Outline: as §1

[19] = test system: NCI-H2170 (Squamous Cell Lung Carcinoma)
Outline: as §1

[20] = test system: Daudi (Burkitt's Lymphoma)
Outline: as §1

SMILES	Bliss excess [1]	Bliss excess [2]	Bliss excess [3]	Bliss excess [4]	Bliss excess [5]	Bliss excess [6]	Bliss excess [7]	Bliss excess [8]	Bliss excess [9]	Bliss excess [10]	Bliss excess [11]	Bliss excess [12]	Bliss excess [13]	Bliss excess [14]	Bliss excess [15]	Bliss excess [16]	Bliss excess [17]	Bliss excess [18]	Bliss excess [19]	Bliss excess [20]
CC1(C)CCC(CN2CCN(c3ccc(C(=O)NS(=O)(=O)c4ccc(NCC5CCOCC5)c([N+](=O)[O-])c4)c(Oc4cnc5[nH]ccc5c4)c3)CC2)=C(c2ccc(Cl)cc2)C1 [Venetoclax] + COc1cc(Nc2ncc3c(n2)-c2ccc(Cl)cc2C(c2c(F)cccc2OC)=NC3)ccc1C(=O)O [Alisertib] (first compound max 1 µM, 7x7, partner max 10 µM)	0.438	-0.0358	0.129	-0.0115	-0.0192	-0.0154	-0.0741	0.0294	-0.0271	0.0977	0.077	-0.0588	0.024	0.017	-0.0221	0.223	0.0269	0.0987	-0.0702	-0.0718
CC1(C)CCC(CN2CCN(c3ccc(C(=O)NS(=O)(=O)c4ccc(NCC5CCOCC5)c([N+](=O)[O-])c4)c(Oc4cnc5[nH]ccc5c4)c3)CC2)=C(c2ccc(Cl)cc2)C1 [Venetoclax] + C[C@@H]1COCCN1C2=NC(=NC(=C2)C3(CC3)[S@](=N)(=O)C)C4=C5C=CNC5=NC=C4 [AZD6738] (first compound max 1 µM, 7x7, partner max 10 µM)	0.0342	-0.0033	-0.0003	0.0331	-0.0023	-0.0291	-0.0429	-0.0308	-0.0092	-0.0106	-0.0396	-0.0075	-0.0486	-0.06	-0.0433	0.0223	-0.0229	0.0276	-0.0019	-0.0278
CC1(C)CCC(CN2CCN(c3ccc(C(=O)NS(=O)(=O)c4ccc(NCC5CCOCC5)c([N+](=O)[O-])c4)c(Oc4cnc5[nH]ccc5c4)c3)CC2)=C(c2ccc(Cl)cc2)C1 [Venetoclax] + C[C@@H](Nc1cc(F)cc(F)c1)c1cc(C(=O)N(C)C)cc2c(=O)cc(N3CCOCC3)oc12 [AZD8186] (first compound max 1 µM, 7x7, partner max 3 µM)	0.0281	-0.0785	-0.0165	-0.001	-0.034	-0.0334	-0.0359	-0.0326	-0.135	-0.0158	0.0144	0.0084	-0.022	-0.0393	-0.0321	-0.0454	-0.0207	0.018	-0.0739	-0.0238
CC1(C)CCC(CN2CCN(c3ccc(C(=O)NS(=O)(=O)c4ccc(NCC5CCOCC5)c([N+](=O)[O-])c4)c(Oc4cnc5[nH]ccc5c4)c3)CC2)=C(c2ccc(Cl)cc2)C1 [Venetoclax] + Cc1cc2ncnn2cc1Nc1ncc2c(n1)n(C1CCOCC1)c(=O)n2C [AZD7648] (first compound max 1 µM, 7x7, partner max 10 µM)	0.0007	-0.0208	0.0037	0.0281	0.0189	-0.113	-0.0512	-0.0301	-0.0132	-0.0153	-0.0112	-0.0589	0.0086	-0.0479	-0.0444	0.0006	-0.0219	0.0067	-0.0109	0.004
CC1(C)CCC(CN2CCN(c3ccc(C(=O)NS(=O)(=O)c4ccc(NCC5CCOCC5)c([N+](=O)[O-])c4)c(Oc4cnc5[nH]ccc5c4)c3)CC2)=C(c2ccc(Cl)cc2)C1 [Venetoclax] + Cn1cnc2c(F)c(Nc3ccc(Br)cc3Cl)c(C(=O)NOCCO)cc21 [Selumetinib] (first compound max 1 µM, 7x7, partner max 3 µM)	-0.03	-0.0072	-0.0139	0.0023	-0.0356	-0.0584	-0.0491	-0.0437	-0.102	-0.0203	-0.0156	-0.0068	-0.0096	-0.0631	-0.0556	-0.0251	-0.0278	-0.0067	-0.0427	-0.0208
